Experimental data taken from ChEMBL document CHEMBL1140349, “A new simple and high-yield synthesis of suberoylanilide hydroxamic acid and its inhibitory effect alone or in combination with retinoids on proliferation of human prostate cancer cells” (J Med Chem, 2005).

Key:
[1] = test system: LNCaP; assay: Concentration required to inhibit growth of human LNCaP prostate cancer cells; type: functional
[2] = test system: LNCaP; assay: Concentration required to inhibit human LNCaP prostate carcinoma cells; type: functional, cell-based

Question: For `CC1=C(/C=C/C(C)=C/C=C/C(C)=C/C(=O)Nc2ccc(O)cc2)C(C)(C)CCC1n1ccnc1` (configuration not stated), which Growth inhibition [1] is on record?
Answer: 5 µM

Question: What about the IC50 [2] of the same molecule?
Answer: 5.5 µM
